Experimental data taken from PubChem BioAssay (NCI).
Values joined by “and” are separate entries in the source; they are usually repeats but may differ in a detail not shown here. Identical values can stand only once.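 Five compound concentrations were applied to cells in 96-well plates for 48 hours; endpoints were derived by simple linear interpolation of the resulting dose-response curve. At the GI50, growth is halved. TGI: total growth inhibition.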

What was measured:
Test in all cases: DTP human tumour cell line panel, 48 h
SF-539 CNS = system: SF-539 CNS
NCI/ADR-RES ovarian = system: NCI/ADR-RES ovarian
NCI-H226 lung = system: NCI-H226 lung
NCI-H23 lung = system: NCI-H23 lung
OVCAR-4 ovarian = system: OVCAR-4 ovarian
LOX IMVI melanoma = system: LOX IMVI melanoma
SNB-75 CNS = system: SNB-75 CNS
M14 melanoma = system: M14 melanoma
MALME-3M melanoma = system: MALME-3M melanoma
RPMI-8226 leukemia = system: RPMI-8226 leukemia

Structure (SMILES)	GI50 (SF-539 CNS)	TGI (SF-539 CNS)	GI50 (NCI/ADR-RES ovarian)	TGI (NCI/ADR-RES ovarian)	GI50 (NCI-H226 lung)	TGI (NCI-H226 lung)	GI50 (NCI-H23 lung)	TGI (NCI-H23 lung)	GI50 (OVCAR-4 ovarian)	TGI (OVCAR-4 ovarian)	GI50 (LOX IMVI melanoma)	TGI (LOX IMVI melanoma)	GI50 (SNB-75 CNS)	TGI (SNB-75 CNS)	GI50 (M14 melanoma)	TGI (M14 melanoma)	GI50 (MALME-3M melanoma)	TGI (MALME-3M melanoma)	GI50 (RPMI-8226 leukemia)	TGI (RPMI-8226 leukemia)
c1ccc(CN2CCC3(CC2)ONC2=NCCN23)cc1	96.3 µM	> 100 µM	18.2 µM	> 100 µM	86.8 µM	> 100 µM	54.9 µM	> 100 µM	> 100 µM	> 100 µM	21.7 µM	55.5 µM	> 100 µM	> 100 µM	> 100 µM	> 100 µM	> 100 µM	> 100 µM		
CC(C)(C)c1cc2c(OP(c3ccccc3)c3ccccc3)c(c1)Cc1cc(C(C)(C)C)cc(c1OP(c1ccccc1)c1ccccc1)Cc1cc(C(C)(C)C)cc(c1OP(c1ccccc1)c1ccccc1)Cc1cc(C(C)(C)C)cc(c1OP(c1ccccc1)c1ccccc1)C2	> 50 µM	> 50 µM			> 50 µM	> 50 µM	> 50 µM	> 50 µM	22 µM	> 50 µM	22.9 µM	> 50 µM	> 50 µM	> 50 µM	> 50 µM	> 50 µM	> 50 µM	> 50 µM	35.9 µM	> 50 µM
COC(=O)c1c(C(=O)OC)c(C(=O)OC)c(C(=O)OC)c1C(=O)OC		> 100 µM						> 100 µM		> 100 µM		> 100 µM		> 100 µM		> 100 µM		> 100 µM		> 100 µM
[O-]c1c(-c2ccccc2)[se]c(-c2ccccc2)[n+]1-c1ccccc1		4.35 µM				9.11 µM		29.7 µM		5.95 µM		30.5 µM		22 µM		17.6 µM		29.3 µM		> 100 µM
Cc1ccc(S(=O)(=O)NC(C)C(=O)O)cc1 (stereo unspecified)		> 100 µM				> 100 µM		> 100 µM		> 100 µM		> 100 µM		> 100 µM		> 100 µM		> 100 µM		> 100 µM
COc1cc2c(C#N)n3c(c2cc1OC)C(=O)C(c1ccccc1)Oc1ccccc1-3 (stereo unspecified)	19.8 µM	> 100 µM	3.05 µM	> 100 µM	2.9 µM	> 100 µM	3.04 µM	> 100 µM	2.89 µM	> 100 µM	3.18 µM	> 100 µM	4.39 µM	24.6 µM			> 100 µM	> 100 µM		
NC(CCc1nc(-c2ccccc2)cs1)C(=O)O (stereo unspecified)		> 100 µM				> 100 µM		> 100 µM				> 100 µM		> 100 µM		> 100 µM		> 100 µM		> 100 µM
NCC(=O)OCN1C(=O)C2C3C=CC(C2C1=O)C1C2C(=O)N(COC(=O)CN)C(=O)C2C31 (stereo unspecified)		68.9 µM and 38.2 µM				> 100 µM		49.1 µM and 84.7 µM		39.1 µM and 55.4 µM		37.9 µM		62.6 µM and > 100 µM		35.3 µM and 33.9 µM				72.5 µM and 59.7 µM
O=c1c2cc(-c3ccccc3)sc2nc2sc(-c3ccccc3)nn12		> 100 µM				> 100 µM		> 100 µM		> 100 µM		> 100 µM		> 100 µM		> 100 µM		> 100 µM		> 100 µM
CC[O+]=c1cccc2ssnc1-2		> 100 µM				> 100 µM				> 100 µM		> 100 µM		72.5 µM		> 100 µM		> 100 µM		
N#C/C(=C/c1cccs1)c1cccs1	> 100 µM	> 100 µM	> 100 µM	> 100 µM	> 100 µM	> 100 µM	> 100 µM	> 100 µM	> 100 µM	> 100 µM	> 100 µM	> 100 µM	> 100 µM	> 100 µM			> 100 µM	> 100 µM		
COC(=O)/C1=C/C2CC(/C=C(/c3ccccc3)C(=O)O1)C2		89.8 µM				44.7 µM		38.4 µM				40.3 µM		35.4 µM		> 100 µM		54.2 µM		64.7 µM
O=C(CN1C(=O)c2ccccc2C1=O)OC1C=CCCC1 (stereo unspecified)		> 100 µM				> 100 µM				> 100 µM				> 100 µM		> 100 µM		> 100 µM		> 100 µM
c1ccc2c(c1)[Se]c1ccccc1[Se]2		> 100 µM				> 100 µM		> 100 µM		67.1 µM		> 100 µM		64.9 µM		> 100 µM		> 100 µM		> 100 µM
C/C(=C\c1ccccc1)C(O)S(=O)(=O)O (stereo unspecified)						> 100 µM		> 100 µM		> 100 µM		> 100 µM		> 100 µM		> 100 µM		> 100 µM		> 100 µM
C=CC1(C)/C(=N\O)C(C)(CC)C(=O)N1O (stereo unspecified)		> 100 µM						> 100 µM		> 100 µM		> 100 µM		> 100 µM		> 100 µM		> 100 µM		
COc1cccc(C(=O)O)c1Cc1cccc2ccccc12						> 100 µM		> 100 µM		> 100 µM		> 100 µM		> 100 µM		> 100 µM		> 100 µM		
CCCC(=O)C(CC)/C(CCC(=O)N(Cc1ccccc1)Cc1ccccc1)=N/NC(=O)C[N+](C)(C)C (stereo unspecified)		> 100 µM				> 100 µM		> 100 µM		> 100 µM				> 100 µM		> 100 µM		> 100 µM		
CC(=O)[CH-]C(=O)c1ccccc1.CC(=O)[CH-]C(=O)c1ccccc1.CC(C)CCCC(C)[C@H]1CCC2[C@@H]3CCC4C[C@@H]([O-])CC[C@]4(C)C3CC[C@@]21C.CC(C)CCCC(C)[C@H]1CCC2[C@@H]3CCC4C[C@@H]([O-])CC[C@]4(C)C3CC[C@@]21C.Cl.[Ti+4] (stereo partly specified)	> 25 µM	> 25 µM			> 25 µM	> 25 µM	> 25 µM	> 25 µM	> 25 µM	> 25 µM	> 25 µM	> 25 µM	> 25 µM	> 25 µM	> 25 µM	> 25 µM	8.93 µM	> 25 µM	> 25 µM	> 25 µM
O=C1c2ccccc2C(=O)N1C/C=N/NS(=O)(=O)c1ccc(Cl)cc1		> 100 µM				> 100 µM		> 100 µM		> 100 µM		> 100 µM		> 100 µM		> 100 µM		> 100 µM		> 100 µM
